{"source": "patent US11045519B2", "about": "“Arginine-rich polypeptide compositions and methods of using same” (UNM Rainforest Innovations, priority 2017, dated 2021)", "key": {"HPV16 PsVs [1]": {"tested_on": "HPV16 PsVs", "assay": "HPV16 PsV binding to HaCaT cells at 4° C. (L1 immunoblot / immunofluorescence)", "assay_type": "cell-based", "procedure": "FIG. 4. PolyR treatment of host cells inhibits HPV16 binding to cells. (A) Confluent HaCaT cell monolayers were treated with 1 μM polyR (in CM) for 30 minutes, before adding 100 vge/cell HPV16 PsVs, and incubated at 4° C. for one hour (to promote binding but prevent virus internalization). After washing out of unbound virus, cells were lysed (25 mM Tris pH7.5, 150 mM NaCl, 1% Triton-X100 supplemented with protease inhibitors) and centrifuged at 16,000×g for 10 minutes. Protein concentrations in supernatant were measured using the Bradford method (Bio-Rad Laboratories, Inc., Hercules, Calif.). Samples were boiled in SDS-containing sample buffer, and aliquots containing equal amount of protein ([…] to 200 μg) separated by SDS-polyacrylamide gel electrophoresis (SDS-PAGE), using 10% gel. Proteins were transferred onto polyvinylidene difluoride (PVDF) membranes and subjected to analysis using anti-HPV16 L1 primary antibody (Camvir-1, sc-47699, Santa Cruz Biotechnology, Inc., Dallas, Tex.;1:5000 dilution) for detection of HPV16 major capsid protein, L1. Proteins were visualized by enhanced chemiluminescence (SUPERSIGNAL West Pico Chemiluminescent Substrate, Thermo Fisher Scientific, Inc., Waltham, Mass.) and exposed to film (Phenix Research Products, Candler, N.C.). (B) Immunofluorescence assays were performed essentially as described previously (Surviladze et al., 2012. PLoS Pathogens 8:e1002519). HaCaT cells were grown on coverslips at approximately 50% confluence and treated with 3 μM polyR for 30 minutes at 37° C. before the addition of 1000 vge of HPV16 PsVs per coverslip. Cells were incubated for one hour at 4° C. and washed several times with PBS, before the fixation with 4% paraformaldehyde (PFA). BSA-blocked cells were incubated with rabbit polyclonal HPV16 antibody (antibody was affinity-purified from rabbit anti-HPV VLP antisera). PBS-washed slides were incubated with donkey AF488-conjugated anti-rabbit IgG secondary antibody; phalloidin-rhodamine (Cytoskeleton, Inc., Denver, Colo.) was used for actin staining. After extensive washing with PBS, cells were mounted in Gold Antifade and immunofluorescent (IF) images were captured by confocal photo-microscopy.\n(A) HPV16 PsVs were bound to HaCaT cells (one hour at 4° C.), before the addition of […]. After a one-hour incubation at 4° C., unbound virus was washed out, cells were lysed and analyzed for the content of HPV L1 protein. (B) HaCaT cells were exposed to HPV 16 PsV at 4° C. in the absence of polyR, simultaneously with polyR (0 h), or one hour after polyR treatment (+1 h). After extensive washing with PBS, cells were lysed and analyzed for the content of HPV16 L1 protein.\nFIG. 16. PrS pretreated cells binding of HPV16. Confluent HaCaT cell monolayers were treated with 1 μM PrS (in CM) before the addition of 200 vge/cell HPV16 PsVs and incubated at 4° C. for one hour (conditions to prevent virus internalization). After washing out of unbound virus, cells were lysed (25 mM Tris pH7.5, 150 mM NaCl, 1% Triton-X100 supplemented with protease inhibitors) and centrifuged at 16,000×g for 10 minutes. Protein concentrations in supernatant were measured using the Bradford method (Bio-Rad Laboratories, Inc., Hercules, Calif.). Samples were boiled in SDS-containing sample buffer, and aliquots containing equal amount of protein (˜50 μg to 200 μg) separated by SDS-polyacrylamide gel electrophoresis (SDS-PAGE) using 10% gel. […]"}, "HPV16 PsVs [2]": {"tested_on": "HPV16 PsVs", "assay": "Co-localization of HPV16 PsV with endosomal marker CD63 in HaCaT cells (confocal microscopy)", "assay_type": "cell-based", "conditions": "1 μM added 1 h after PsVs, further 7 h", "procedure": "FIG. 9. PolyR inhibits HPV16 L2 protein cleavage by furin and induces accumulation of internalized virus particles in late endosomal fraction. (A) Equal amount of HPV16 diluted in 50 μl furin assay buffer (1 mM CaCl2), 100 mM HEPES, 0.5% Triton X-100, 1 mM β-mercaptoethanol) was loaded into six tubes, and subsequently incubated for two hours at 30° C. without any inhibitor, in the presence of 1.3 μM furin inhibitor1 (Merck Millipore Corp., Burlington, Mass.), or 1 μM polyR. Samples were mixed with SDS-PAGE sample buffer and boiled before fractionation on 9% gel. Proteins were transferred onto PVDF membranes and after blocking, incubated with affinity-purified rabbit anti-HPV16 polyclonal antibody. Secondary donkey anti-rabbit horseradish peroxidase-coupled antibody was used for detection of HPV16 capsid proteins. (B) HaCaT cells grown on coverslips were incubated with HPV16 PsVs for one hour at 37° C. to initiate virus binding (and partial internalization) before adding 1 μM polyR and further incubated for seven hours. After the incubation, cells were fixed and stained for HPV16 and endogenous CD63, using primary anti-HPV16 rabbit polyclonal and anti-CD63 mouse monoclonal antibodies (Santa Cruz Biotechnology, Inc., Dallas, Tex.). […]"}}, "data": [{"substance": "poly-L-arginine [polyR]", "values": [{"measurement": "HPV16 binding to pre-treated cells (L1 immunoblot)", "setting": "HPV16 PsVs [1]; 1 μM, 30 min pre-treatment, 100 vge/cell, 4° C. 1 h", "result": "almost completely blocked HPV16 binding"}, {"measurement": "HPV16 bound to cell surface (confocal microscopy)", "setting": "HPV16 PsVs [1]; 3 μM, 30 min pre-treatment, 4° C. 1 h", "result": "dramatically reduced detection of HPV bound to the cell surface"}, {"measurement": "reduction of HPV binding to cells", "setting": "HPV16 PsVs [1]; polyR and HPV added simultaneously, 4° C.", "result": "≈ 50%"}, {"measurement": "co-localization of HPV16 and CD63", "setting": "HPV16 PsVs [2]", "result": "significantly increased co-localization of HPV16 and CD63"}]}]}
